Reference: US20260335282A1, “NOVEL 3-ARYLIDENE-2-INDOLINONE DERIVATIVES FOR THERAPEUTIC USE” (ISTANBUL UNIVERSITESI REKTORLUGU, priority 2022, published 2026)
Entries after “also recorded” stand apart in the source; their conditions may differ.

Assays:
[1] = tested on: general tyrosine kinase activity in A498 kidney cancer cells; assay: General tyrosine kinase activity (ELISA) in A498 cells; assay type: cell-based, human; conditions: IC50 concentration
Experimental: (§1) Takara Universal Tyrosine Kinase Assay Kit is used to determine the effects of 11 2-indolinone compounds (Y1, Y2, Y3, Y4, Y5, Y8, […], […], Y21, Y23, 20C, 22C) on general tyrosine kinase activity in cancer cells. Cells are seeded in 6-well plates (4.10^5 cells/well) and the IC50 concentration of each selected molecule is performed to the cells for 48 or 72 hours. Cells in the control group are incubated with medium only. At the end of the incubation period, the cells in each well are washed with PBS and cells are removed from the wells using a cell scraper via 1 ml of the extraction buffer in the kit. The cell lysate is transferred to ependorf tubes and centrifuged at 10.000 g for 10 minutes at +4° C. and the supernatant is used as a sample for activity determination. After the extracts obtained from the control and experimental groups are diluted 1:25, 40 μl extracts is transferred to two wells in the 96-well plate in the kit. In addition, the standard solution in the kit is diluted according to the kit instructions and each concentration is transferred 40 μl into three wells. 10 μl of 40 mM ATP-2Na solution is added to all wells and the plate is incubated at 37° C. for 30 minutes. […] The reaction is finished by adding 100 μl of stop solution to each well and the optical density in each well is measured at 405 nm with a microplate reader (BioTek, USA). The tyrosine kinase activity in each sample is calculated from the standard curve obtained from the absorbance values of the standard solutions with the kit (Chan W Y, Lau P M, Yeung K W, Kong S K. The second generation tyrosine kinase inhibitor dasatinib induced eryptosis in human erythrocytes—An in vitro study. Toxicol Lett. 2018; 295:10-21). […]
The effects of 11 2-indolinone compounds (Y1, Y2, Y3, Y4, Y5, Y8, Y14, Y21, Y23, 20C and 22C) having the structure of formula (5), which are prominent with their cytotoxicity in A498, MIAPaCa-2 and HCT-116 cancer cell lines and nontoxic properties in healthy cells, on general tyrosine kinase activity in cancer cells are determined.

[2] = tested on: A498 cells; assay: Apoptosis/necrosis detection, Annexin V/PI flow cytometry, A498; assay type: cell-based, human
Experimental: After incubation with 2-indolinone compounds (IC50 μM concentration; 48 and/or 72 hours), cells are washed twice with PBS and the cell pellet is suspended in Annexin V binding buffer. After this incubation, cells are incubated with FITC-conjugated Annexin V and propidium iodine staining solution for 15 minutes in the dark and at room temperature. Then, cells are analyzed by flow cytometry (Beckman coulter, Navios) (Wlodkowic, D., Skommer, J, Darzynkiewicz, Z. 2009. Flow cytometry-based apoptosis detection, Methods Mol Biol., 559, 1-14).

[3] = tested on: general tyrosine kinase activity in HCT116 colon cancer cells; assay: General tyrosine kinase activity (ELISA) in HCT-116 cells; assay type: cell-based, human; conditions: 72 hours, IC50 concentration
Experimental: as §1, with “determination.” for “determination. After the extracts obtained from the control and experimental groups are diluted 1:25, 40 μl extracts is transferred to two wells in the 96-well plate in the kit. In addition, the standard solution in the kit is diluted according to the kit instructions and each concentration is transferred 40 μl into three wells. 10 μl of 40 mM ATP-2Na solution is added to all wells and the plate is incubated at 37° C. for 30 minutes.”

[4] = tested on: human cancer cells; assay: MTT cell viability, human cancer cells overall; assay type: cell-based; conditions: cell line as discussed at the place
Description: The cytotoxicity, general tyrosine kinase inhibitory effects and cell death (apoptosis/necrosis) assays of 1-benzyl-3-(1H-indol-3-ylmethylidene)-1,3-dihydro-2H-indol-2-one derivatives (Formula 5) of the present invention are studied by the following methods. […] HUVEC (human umbilical vein endothelial cell), MCF-10F (human breast epithelial cell) and Beas2b (human lung bronchial epithelial cell) cell lines have been used as healthy control cells in MTT experiments.
Beas2b (human lung bronchiole epithelial cell) and HEK293 (renal tubule epithelium) cells used as normal cell lines were cultured in RPMI medium, and HUVEC (human umbilical cord endothelial cells) and MCF-10F (human breast epithelial cell) cells are cultured in DMEM medium containing 100 µg/ml penicillin/streptomycin. The cells, which covered 70% of the culture flask, are washed with phosphate buffer and then removed from the surface of the flask by application of trypsin-ethylenediamine tetraacetic acid (Trypsin-EDTA; 0.25%) solution, passaged, counted and seeded on appropriate plates before each experiment. Cells are treated with a total of 45 2-indolinone compounds (5) at concentrations of 0.1, 1, 5 and 10 μM. Stock compounds are prepared in 1 ml dimethylsulfoxide (DMSO) and 4 different dilutions were prepared with medium and performed to the cells. Control group cells are treated with DMSO at a similar concentration to the experimental groups.
MTT (3-(4,5-dimethylthiazol-2-yl)-2,5-diphenyl-2H-tetrazolium bromide) colorimetric assay provides quantitation of viable cells with ongoing mitochondrial activity in culture medium. According to the standard procedure in cell culture conditions, cells are maintained in RPMI-1640 and DMEM culture media containing 10% FBS and 1% penicillin/streptomycin. The trypan blue test is used for cell counts.
The effects of 45 2-indolinone compounds (5) on cell viability in all cancer cell lines are investigated by MTT assay. Cells are seeded in a 96-well flat bottom plate with 5000 cells in each well and 2-indolinone compounds (5) at concentrations of 0.1, 1, 5 and 10 μM are performed to the cells the next day. After 48 and/or 72 hours following treatment with 2-indolinone compounds, 50 μl of the supernatant is slowly discarded (as it was acid medium) and MTT at a concentration of 5 mg/ml is added to each well in a volume of 10 μl. After incubation for 4 hours, the formazan crystals formed in the wells are dissolved by adding 100 μl DMSO and the optical density is read at 570 nm test wavelength and 630 nm reference wavelength. Cell viability is expressed as % cell viability by comparing the absorbance of control and test wells. IC50 value is calculated from the dose-response curves prepared for each compound. In addition, the possible DMSO effect is eliminated by preparing negative control wells compatible with the amount of DMSO contained in the compounds. To understand the reaction of the compounds with MTT, cell-free (MTT+compounds) negative controls are prepared at the concentrations used (Mosmann, 1983). […] The absorbance values obtained are compared to the control and statistically evaluated by unpaired t-test using “Graphpad Prism 5.04” software. “P<0.05” is accepted as significant. When evaluating cytotoxic effects, the present inventors aim for the inventive compounds to be effective in cancer cells and ineffective in healthy cells. […]

Cc1ccc2c(c1)/C(=C/c1c[nH]c3ccccc13)C(=O)N2Cc1ccccc1 [Y3]
general tyrosine kinase activity compared to control ([1]; 48 h): significantly decreased; also recorded: decreased the general tyrosine kinase activity
necrosis compared to control ([2]; A498): no increase or decrease; also recorded: did not cause necrosis
Apoptosis rate compared to control ([2]; A498, IC50 concentration): increased significantly

O=C1/C(=C\c2c[nH]c3ccccc23)c2cc(OC(F)(F)F)ccc2N1Cc1ccccc1 [Y4]
tyrosine kinase activity compared to control [3]: did not cause a significant change
potency/selectivity compared with sunitinib malate [4]: more potent than Sunitinib malate

Cc1ccc2c(c1)/C(=C/c1c[nH]c3ccccc13)C(=O)N2Cc1cccc(F)c1 [Y8]
general tyrosine kinase activity compared to control ([1]; 72 h): did not cause a significant change
